Laboratory results taken from publication PMC467089, “Click estradiol dimers with novel aromatic bridging units: synthesis and anticancer evaluation” (Journal of Enzyme Inhibition and Medicinal Chemistry, 2024).
Like-named read-outs stand apart in the source and are kept apart here.

Key:
[1] = MTS cytotoxicity assay, MRC-5; assay type: cell-based; details: human
Method: (§1) The p53 deficient variant, HCT116p53−/−, was purchased from Horizon Discovery (Cambridge, UK). The daunorubicin-resistant CCRF-CEM cell line CEM-DNR bulk and paclitaxel-resistant K562-TAX sublines were developed in-house by exposing parental cell lines to escalating concentrations of daunorubicin and paclitaxel, respectively. Cells were maintained in the recommended culture medium (Sigma-Aldrich, St. Louis, MO) supplemented with 10% foetal calf serum, 100 U/mL penicillin, and 100 μg/mL streptomycin. The HUVEC line was obtained from PromoCell (Heidelberg, Germany). The cells were cultured in endothelial cell growth medium with SupplementMix for endothelial cells (PromoCell, Heidelberg, Germany). The incubation conditions were a humidified atmosphere of 95% air and 5% CO2 at 37 °C[10]. Cells were seeded in 384-well plates and after overnight incubation treated with compounds. All tested compounds were dissolved in 100% DMSO, and fourfold serial dilutions were performed using an Echo550 liquid handler (Labcyte, San Jose, CA). The experiments were performed in technical duplicates and three biological replicates. Cells were incubated with compounds for 72 h and thereafter 5 μL of MTS reagent was added to each well.

CCRF-CEM lymphoblasts [2] = assay: Phospho-histone H3 (Ser10) mitotic marker, flow cytometry; assay type: cell-based, human
Method: (§2) To further characterise the mode of action of studied compounds, we analysed the cell cycle profile of CCRF-CEM cells treated with compounds for 24 h. […] The compounds ED1–ED9 and ED12 induced arrest in G2/M phase of the cell cycle (Figure 2(A)). To differentiate between G2 block and mitotic arrest, we used phospho-histone H3 (Ser10) mitotic marker (Figure 2(B)). […] Generally, dimers induced a dose-dependent increase of sub G1 cell population with fragmented DNA except for ED2 and ED4 (Figure 2(C)). […] To assess the proliferation of treated cells, they were subjected to 5-bromo-2-deoxyuridine (BrDU) labelling. […] Analogously, changes in 5-bromouridine (BrU) incorporation were examined to monitor overall RNA synthesis.
(§3) Treated CCRF-CEM cells were harvested, washed with ice-cold phosphate-buffered saline (PBS), fixed in cold 70% ethanol and stored at −20 °C. Prior to analysis, fixed cells were permeabilised with 0.25% Triton X-100 in PBS for 15 min, blocked in 1% bovine serum, and incubated with anti-phospho-Histone H3 (Ser^10) antibody (Merck Millipore, Burlington, MA). Subsequently, the cells were treated with 50 μg/mL RNAse, stained with propidium iodide and analysed by FACSCalibur (Becton Dickinson, Franklin Lakes, NJ) flow cytometer at 488 nm. Cell cycle distribution (G1, S, and G2/M) was analysed using ModFitLT software (Verity, Topsham, ME), and reflects only viable population prior to the fixing procedure. Particles with lower propidium iodide content than G1 phase cells were classified as non-viable cells with fragmented DNA. Flow cytometry data visualisation was performed using OriginPro 2018b (b9.5.5.409) software (OriginLab Corporation, Northampton, MA)[10].

[3] = test system: HCT116p53−/− (p53 gene null variant of HCT116); assay: MTS cytotoxicity assay, HCT116p53−/−; assay type: cell-based; details: Homo sapiens, read-out: IC50 cytotoxic activity HCT116p53-
Method: as §1

[4] = test system: A549 (lung adenocarcinoma); assay: MTS cytotoxicity assay, A549; assay type: cell-based, human; details: Homo sapiens, read-out: IC50 cytotoxic activity A549
Method: as §1

[5] = test system: CCRF-CEM (childhood T-cell acute lymphoblastic leukaemia); assay: MTS cytotoxicity assay, CCRF-CEM; assay type: cell-based; details: Homo sapiens, read-out: IC50 cytotoxic activity CCRF-CEM
Method: as §1

[6] = MTS cytotoxicity assay, BJ; assay type: cell-based; details: human
Method: as §1

[7] = test system: K562-TAX (paclitaxel-resistant variant of K562); assay: MTS cytotoxicity assay, K562-TAX; assay type: cell-based, human; details: for IC50: Homo sapiens, K562-Tax, read-out: IC50 cytotoxic activity K562-TAX
Method: as §1

[8] = test system: K562 (chronic myelogenous leukaemia); assay: MTS cytotoxicity assay, K562; assay type: cell-based; details: Homo sapiens, read-out: IC50 cytotoxic activity K562
Method: as §1

CCRF-CEM lymphoblasts [9] = assay: BrU incorporation analysis (RNA synthesis); assay type: cell-based, human
Method: as §2
Prior to the trypsinisation, cells were treated with 1 mM BrU for 30 min. Subsequently, the cells were fixed in 1% paraformaldehyde with 0.05% of NP-40 for 15 min at RT and stored overnight at 4 °C. Fixed cells were washed with 1% glycine in PBS and stained with primary anti-BrdU antibody clone MoBu-1 crossreacting with BrU (Exbio, Vestec, Czech Republic) for 30 min at RT, washed with PBS and labelled with secondary anti-mouse-FITC antibody (Sigma-Aldrich, St. Louis, MO). Following 1-h incubation in 1% paraformaldehyde containing 0.05% NP-40, cells were stained with propidium iodide (0.1 mg/mL) and treated with RNase A (0.5 mg/mL) for 1 h at RT. The percentage of BrU positive cells was quantified using CellQuest software.

CCRF-CEM lymphoblasts [10] = assay: Cell cycle analysis by flow cytometry (propidium iodide); assay type: cell-based, human
Method: as §2, §3

[11] = MTS cytotoxicity assay, HUVEC; assay type: cell-based; details: human
Method: as §1

porcine brain tubulin = molecular target: T1, porcine brain tubulin (Sus scrofa, UniProt P02550+P02554); assay: Tubulin polymerisation assay; assay type: biochemical; details: 10 μmol/L, Vmax relative to DMSO
T1 construct: purchased Cytoskeleton, Denver, CO; host or cells: porcine brain (tissue-purified)
T1 sequence (P02550 whole entry): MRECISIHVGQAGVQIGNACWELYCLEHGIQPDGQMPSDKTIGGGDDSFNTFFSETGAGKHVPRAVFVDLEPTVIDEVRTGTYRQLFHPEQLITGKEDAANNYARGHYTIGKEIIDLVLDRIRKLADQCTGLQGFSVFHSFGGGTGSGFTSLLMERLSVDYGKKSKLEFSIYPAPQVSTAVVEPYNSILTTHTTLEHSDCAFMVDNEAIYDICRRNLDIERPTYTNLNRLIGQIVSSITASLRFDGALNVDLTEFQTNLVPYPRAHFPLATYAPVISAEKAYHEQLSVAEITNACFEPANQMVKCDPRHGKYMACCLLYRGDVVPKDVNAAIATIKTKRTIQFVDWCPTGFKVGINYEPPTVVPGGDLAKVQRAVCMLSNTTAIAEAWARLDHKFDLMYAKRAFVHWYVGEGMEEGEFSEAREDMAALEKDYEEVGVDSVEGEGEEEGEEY
T1 sequence (P02554 whole entry): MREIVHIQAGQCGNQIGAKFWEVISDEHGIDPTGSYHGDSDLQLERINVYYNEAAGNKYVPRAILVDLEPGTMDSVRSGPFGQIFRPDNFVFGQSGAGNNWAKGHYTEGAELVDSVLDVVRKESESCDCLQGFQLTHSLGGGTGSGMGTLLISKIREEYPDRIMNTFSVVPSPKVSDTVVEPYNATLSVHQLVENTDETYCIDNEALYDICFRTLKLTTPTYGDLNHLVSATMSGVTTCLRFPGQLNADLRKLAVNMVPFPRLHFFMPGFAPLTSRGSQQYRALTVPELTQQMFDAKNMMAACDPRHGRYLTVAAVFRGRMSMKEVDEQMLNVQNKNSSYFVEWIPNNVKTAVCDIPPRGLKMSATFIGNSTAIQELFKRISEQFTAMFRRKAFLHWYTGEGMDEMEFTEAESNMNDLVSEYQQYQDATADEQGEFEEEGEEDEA
Method: Tubulin polymerisation assay kit (Cytoskeleton, Denver, CO) was used according to the manufacturer’s instructions. Polymerisation of porcine brain tubulin (>99% purity) was measured using an EnVision Multilabel Plate Reader (PerkinElmer, Waltham, MA) at 37 °C, in the presence of either 10 μmol/L test compounds or DMSO. Maximum polymerisation velocity (Vmax) was calculated from the polymerisation curves. Data visualisation was performed in OriginPro 2018b (b9.5.5.409) software (OriginLab Corporation, Northampton, MA)[10].

[12] = test system: CEM-DNR (daunorubicin resistant variant of CCRF-CEM); assay: MTS cytotoxicity assay, CEM-DNR; assay type: cell-based, human; details: Homo sapiens, CEM-DNR, read-out: IC50 cytotoxic activity CEM-DNR
Method: as §1

CCRF-CEM lymphoblasts [13] = assay: BrDU incorporation analysis (DNA synthesis); assay type: cell-based, human
Method: as §2
Thirty minutes before harvesting, cells were pulse-labelled with 10 μM BrDU. After overnight fixation in ice-cold 70% ethanol, cells were resuspended in 2 M HCl for 30 min at room temperature (RT), then washed with 0.1 M Na2B4O7 and blocked with PBS containing 0.5% Tween-20 and 1% BSA. BrDU incorporation was analysed using anti-BrdU antibody clone MoBu-1 (Exbio, Vestec, Czech Republic) and a secondary anti-mouse-FITC antibody (Sigma-Aldrich, St. Louis, MO). Cells were washed with PBS and stained with 0.1 mg/mL propidium iodide and 0.5 mg/mL RNase A for 1 h at RT and analysed by flow cytometry using a 488 nm single beam laser (FACSCalibur, Becton Dickinson, Franklin Lakes, NJ). The percentage of cells with incorporated BrDU was analysed using CellQuest software.

U2OS (osteosarcoma) = assay: MTS cytotoxicity assay, U2OS; assay type: cell-based, human; details: Homo sapiens, U2OS, read-out: IC50 cytotoxic activity U2OS
Method: as §1

[14] = test system: HCT116 (colorectal adenocarcinoma); assay: MTS cytotoxicity assay, HCT116; assay type: cell-based; details: Homo sapiens, read-out: IC50 cytotoxic activity HCT116
Method: as §1

[15] = HCT-116, MTS assay, 72-h incubation, mean ± SD of 3 independent experiments
[16] = MTS assay, 72-h incubation, mean ± SD of 3 independent experiments

Row | SMILES | pH3Ser10, % of positive cells (CCRF-CEM lymphoblasts [2]; 1×IC50, 24 h) [%] | pH3Ser10, % of positive cells (CCRF-CEM lymphoblasts [2]; 5×IC50, 24 h) [%] | BrU, % of positive cells (CCRF-CEM lymphoblasts [9]; 1×IC50, 24 h) [%] | BrU, % of positive cells (CCRF-CEM lymphoblasts [9]; 5×IC50, 24 h) [%] | <G1 (sub-G1, fragmented DNA), % of positive cells (CCRF-CEM lymphoblasts [10]; 1×IC50, 24 h) [%] | >G2/M (polyploidy), % of positive cells (CCRF-CEM lymphoblasts [10]; 1×IC50, 24 h) [%] | G0/G1, % of positive cells (CCRF-CEM lymphoblasts [10]; 1×IC50, 24 h) [%] | G2/M, % of positive cells (CCRF-CEM lymphoblasts [10]; 1×IC50, 24 h) [%] | S, % of positive cells (CCRF-CEM lymphoblasts [10]; 1×IC50, 24 h) [%] | <G1 (sub-G1, fragmented DNA), % of positive cells (CCRF-CEM lymphoblasts [10]; 5×IC50, 24 h) [%] | >G2/M (polyploidy), % of positive cells (CCRF-CEM lymphoblasts [10]; 5×IC50, 24 h) [%] | G0/G1, % of positive cells (CCRF-CEM lymphoblasts [10]; 5×IC50, 24 h) [%] | G2/M, % of positive cells (CCRF-CEM lymphoblasts [10]; 5×IC50, 24 h) [%] | S, % of positive cells (CCRF-CEM lymphoblasts [10]; 5×IC50, 24 h) [%] | BrDU, % of positive cells (CCRF-CEM lymphoblasts [13]; 1×IC50, 24 h) [%] | BrDU, % of positive cells (CCRF-CEM lymphoblasts [13]; 5×IC50, 24 h) [%] | other results
1 | C[C@]12CC[C@@H]3c4ccc(O)cc4CC[C@H]3[C@@H]1CC[C@@]2(O)c1cn(Cc2cccc(Cn3cc([C@]4(O)CC[C@H]5[C@@H]6CCc7cc(O)ccc7[C@H]6CC[C@@]54C)nn3)c2)nn1 [ED1, (17β,17′β)-17,17′-[Benzene-1,3-diylbis(methanediyl-1H-1,2,3-triazole-1,4-diyl)]bisestra-1,3,5(10)-triene-3,17-diol] | 61.09 | 64.45 | 48.16 | 31.42 | 55.53 | 10.7 | 0.28 | 74.70 | 25.01 | 64.75 | 17.65 | 0.27 | 75.07 | 24.67 | 38.15 | 6.70 | IC50 at 72 h [1]: > 50000 nM; IC50 ([3]; HCT-116, 72 h): 1500 ± 320 nM; IC50 ([4]; A549, 72 h): 1680 ± 200 nM; IC50 ([5]; 72 h): 1600 ± 270 nM; IC50 at 72 h [6]: > 50000 nM; IC50 cytotoxic activity K562-TAX [7]: sensitive; IC50 ([7]; 72 h): 1580 ± 160 nM; IC50 ([8]; K562, 72 h): 1630 ± 120 nM; IC50 at 72 h [11]: 13.5 ± 2 nM; inhibitory activity against tubulin polymerisation (in words) (porcine brain tubulin): comparable or better inhibitory activity; IC50 ([12]; 72 h): > 50000 nM; IC50 (U2OS (osteosarcoma); 72 h): 1950 ± 440 nM; IC50 ([14]; HCT-116, 72 h): 1410 ± 300 nM
2 | COc1cc2c(cc1O)CC[C@@H]1[C@@H]2CC[C@]2(C)[C@@H](O)CC[C@@H]12 [ME, 2-methoxyestradiol, reference compound] | 17.74 | 67.40 | 23.60 | 46.10 | 23.97 | 6.2 | 31.50 | 28.85 | 39.65 | 65.32 | 10.4 | 1.19 | 84.03 | 14.77 | 9.31 | 9.49 | IC50 at 72 h ([1]; MRC-5 cells (non-tumour fibroblasts), MTS assay, 72-h incubation, mean ± SD of 3 independent experiments, read-out: IC50 cytotoxic activity MRC-5): > 50000 nM; IC50 [3, 15]: 1990 ± 410 nM; IC50 ([4]; A549, MTS assay, 72-h incubation, mean ± SD of 3 independent experiments): 2260 ± 150 nM; IC50 [5, 16]: 1610 ± 97 nM; IC50 at 72 h ([6]; BJ cells (non-tumour skin fibroblasts), MTS assay, 72-h incubation, mean ± SD of 3 independent experiments, read-out: IC50 cytotoxic activity BJ): > 50000 nM; IC50 [7, 16]: 1320 ± 200 nM; IC50 ([8]; K562, MTS assay, 72-h incubation, mean ± SD of 3 independent experiments): 1430 ± 390 nM; IC50 at 72 h ([11]; HUVEC cells (umbilical vein endothelial cells), MTS assay, 72-h incubation, mean ± SD of 3 independent experiments, read-out: IC50 cytotoxic activity HUVEC): 1070 ± 180 nM; IC50 [12, 16]: 1610 ± 200 nM; IC50 (U2OS (osteosarcoma); [16]): 2130 ± 300 nM; IC50 [14, 15]: 1580 ± 250 nM
